Drawing on ChEMBL document CHEMBL3244021, “Structure and biological activity of (-)-[3H]dihydroalprenolol, a radioligand for studies of beta-adrenergic receptors” (J Med Chem, 1977), this text covers Kd and Stability for three compounds.

Series [1] is described as follows: Displacement of (-)-[3H]dihydroalprenolol from beta adrenergic receptor in frog erythrocyte membrane after 10 mins by liquid scintillation counting analysis. Format: cell membranes, Anura.
The nature of series [2]: Antagonist activity at beta adrenergic receptor in frog erythrocyte membrane assessed as inhibition of (-)-isoproterenol-stimulated adenylate cyclase activity measured as [32P]-cAMP level. Format: cell membranes, Anura.
The nature of series [3]: Binding affinity to beta adrenergic receptor in frog erythrocyte membrane after 10 mins by liquid scintillation counting analysis. In kind it is cell membranes, Anura.
A short description of series [4]: Stability of the compound. Format: physicochemical.

The structures appear in SMILES notation.

Turning to `C=CCc1ccccc1OCC(O)CNC(C)C` (configuration not stated), the Kd in series [1] was found to be 2.5 nM; in series [2] it was 4 nM.
The like results for `CCCc1ccccc1OCC(O)CNC(C)C` (single isomer, unassigned; (-)) were, in that order, 2.5 nM and 4 nM.
Regarding `[3H]C([3H])([3H])C([3H])([3H])Cc1ccccc1OCC(O)CNC(C)C` (single isomer, unassigned; (-)), the figures for the Kd in series [3] and in series [2] were 3 nM and 4 nM, respectively. Also, in series [4], the Stability entry is on record as “Stable”.
